Experimental data: patent US20260207625A1, “New medical use of 3a-ethynyl-3ß hydroxyandrostan-17-one oxime” (priority 2022, published 2026)

Key:
[1] = tested on: 6-OHDA rats treated with L-DOPA; experiment: L-dopa Induced Dyskinesia (LID) rat model, Abnormal Involuntary Movements (AIMs); assay type: in vivo; details: 6 weeks of daily L-DOPA, 3 weeks of oral golexanolone, compared to group receiving only L-DOPA
Method: The ability of golexanolone to reduce or eliminate L-dopa Induced Dyskinesia (LID) was analyzed. This test is described in FIG. 14.
L-dopa Induced Dyskinesia (LID) was induced in a rat model described by Loiodice et al in ACS Chem Neurosci. 2018 Apr. 18; 9(4): pp. 762-772. Abnormal Involuntary Movements (AIM) was measured.
Rats positive in the apomorphine test received daily L-DOPA treatment starting 4 weeks after surgery and oral golexanolone treatment starting 7 weeks after surgery.
The experiment included the following groups: • 1) 6-OHDA rats treated with L-DOPA and receiving vehicle; • 2) 6-OHDA rats treated with golexanolone and treated with L-DOPA (n=12 per group). The appearance of a variety of AIMs were analyzed after 6 weeks of daily L-DOPA injections, and 3 weeks of golexanolone treatment, as described in Lundblad M et al; Eur J Neurosci. 2002 January; 15(1): pp. 120-132, and Loiodice et al in ACS Chem Neurosci. 2018 Apr. 18; 9(4): pp. 762-772.
Axial AIMs, limb AIMs, orolingual AIMs and locomotive AIMs were evaluated. One hour after the daily dose of golexanolone, L-DOPA was injected and AIMs were analyzed every 20 minutes for a total of three hours, as shown in FIG. 15.
As shown in this graph, there were less AIMs in the group of animals treated with golexanolone compared to the group who received only L-DOPA.

astrocytes = experiment: Astrocytes activation in striatum (GFAP stained area); assay type: in vivo, rat; details: 6-OHDA rats treated with golexanolone; 5 weeks after surgery; mean±SEM; untreated 6-OHDA rats 123±10%
Excerpt: (§1) The unilaterally 6-hydroxydopamine (6-OHDA) rat model according to Carvalho M et al. in Molecular Neurodegeneration 2013, 8:14; pp. 1-11, was used.
(§2) Under isoflurane (5% induction and then 2%) anesthesia the animals were placed on a stereotaxic frame with non-traumatic ear bars (Stoelting, USA), and unilaterally injected (left hemisphere) using an 30-gauge needle Hamilton syringe (Hamilton Company, Switzerland), with either vehicle (sham group, n=20) or 6-OHDA hydrochloride (Sigma, USA) (6-OHDA group, n=40) directly into the medial forebrain bundle (coordinates related to Bregma, AP=−4.4 mm; ML=−1.0 mm; DV=−7.8 mm; according to (Paxinos G, Watson C. The Rat Brain in Stereotaxic Coordinates. 4. San Diego, USA: Academic; 1998).
(§3) At a rate of 1 μl/min, sham animals received 2 μl of 0.2 mg/ml ascorbic acid in 0.9% NaCl, and 6-OHDA animals were injected with 2 μl 6-OHDA hydrochloride (4 μg/μl) with 0.2 mg/ml ascorbic acid in 0.9% NaCl. After injection the syringe was left in place for 10 minutes to allow diffusion.
(§4) Rats positive in the apomorphine-induced rotation test (20 animals) were included in the study, together with 20 sham-operated controls. […]
Astrocytes activation was assessed at 5 weeks after surgery, by measuring the total GFAP stained area with Image J software. Results were expressed as percentage of shams.
Astrocyte activation in the striatum was analysed by immunohistochemistry. […]

6-OHDA rat model [2] = experiment: Motor coordination, Motorater test (horizontal ladder); assay type: in vivo; details: 6-OHDA rats; 50 mg/kg daily intragastric; 7 weeks after surgery, 3 weeks of treatment; versus control rats
Excerpt: as §1, §2
At a rate of 1 μl/min, sham animals received 2 μl of 0.2 mg/ml ascorbic acid in 0.9% NaCl, and 6-OHDA animals were injected with 2 μl 6-OHDA hydrochloride (4 μg/μl) with 0.2 mg/ml ascorbic acid in 0.9% NaCl. […]
Motor coordination was tested with the Motorater test (Zörner B, Filli L, Starkey M L, Gonzenbach R, Kasper H, Röthlisberger M, et al. Profiling locomotor recovery: comprehensive quantification of impairments after CNS damage in rodents. Nat Methods. 2010; 7(9): pp. 701-708). […] The performance is recorded from the bottom by a mobile high-speed camera at 200 frames per second. Failures to set a foot on the ladder stairs are quantified.

6-OHDA rat model [3] = experiment: Anxiety, open arena test; assay type: in vivo; details: 6-OHDA rats; 50 mg/kg daily intragastric; 5 weeks after surgery, 10 days of treatment
Excerpt: as §1, §2, §3, §4
Anxiety was evaluated in an open arena during five minutes by measuring the time that the rat remains in the central zone, instead of close to the walls of the box, where the rats feel safer. […]

6-OHDA rat model [4] = experiment: Object location memory test (OLM); assay type: in vivo; details: 6-OHDA rats; 50 mg/kg daily intragastric; 6 weeks after surgery, 2 weeks of treatment
Excerpt: as §1, §2
(§5) At a rate of 1 μl/min, sham animals received 2 μl of 0.2 mg/ml ascorbic acid in 0.9% NaCl, and 6-OHDA animals were injected with 2 μl 6-OHDA hydrochloride (4 μg/μl) with 0.2 mg/ml ascorbic acid in 0.9% NaCl. After injection the syringe was left in place for 10 minutes to allow diffusion. […]
The object location memory test (OLM) evaluates spatial location memory. […] The time exploring each object is analyzed. The discrimination ratio is calculated: (Time exploring new object location-time exploring old located object)/total time exploring the objects. […]

6-OHDA rat model [5] = experiment: CatWalk test, initial dual stance; assay type: in vivo; details: 6-OHDA rats; 50 mg/kg daily intragastric
Excerpt: as §1, §2, §5
(§6) The CatWalk™ system measures various aspects of locomotor pattern. Based on the position, pressure, and surface area of each footfall, multiple parameters are calculated. […] Paw print designations were assigned and data analysed using the CatWalk analysis software (v 7.1)
Initial dual stance was evaluated in the catwalk test. […]

α-synuclein = α-synuclein content in striatum by Western blot; assay type: in vivo, rat; details: 6-OHDA rats treated with golexanolone, 10 weeks after surgery, mean±SEM, untreated 6-OHDA rats 195±35%
Excerpt: as §1, §2, §5
α-synuclein content was analyzed by Western blot. […] Membranes were scanned using the ScanJet 5300C (Hewlett-Packard, Amsterdam, the Netherlands) and band intensities were quantified using Alpha Imager 2200 version 3.1.3 (Alpha Innotech Corporation). Results were expressed as percentage of shams. […]

6-OHDA rat model [6] = experiment: Fatigue in treadmill test, 6-OHDA rats; assay type: in vivo; details: golexanolone 50 mg/kg daily intragastric, 5 weeks after surgery, 9 days of treatment
Excerpt: A 6-OHDA rat model as described by Heo et al. (Curr Biol. 2020 Jan. 20; 30(2): pp. 276-291) and by Carvalho et al. (Mol. Neurodegener. 2013, 8: 14: Behavioral characterization of the 6-hydroxidopamine model of Parkinson's disease and pharmacological rescuing of non-motor deficits) is used.
as §1
Eight week old Wistar-Han male rats (56 animals) (Charles River, Barcelona) were housed, two per cage, under standard laboratory conditions: 12 hour light-dark cycle, 22° C. room temperature, 55% relative humidity, food and water available ad libitum. All manipulations were done in accordance with the local regulations (European Union Directive 2010/63/EU). […]
Fatigue was evaluated in a treadmill consisting of a motorized conveyor belt divided into two parallel sectors, each with an electrified grid. […] The value recorded during the last 15 minutes of each test (and the times it falls on the grid) is recorded. […]

6-OHDA rat model [7] = experiment: CatWalk test, locomotor gait swing; assay type: in vivo; details: 6-OHDA rats; 50 mg/kg daily intragastric; 7 weeks after surgery, 3 weeks of treatment
Excerpt: as §1, §2, §5, §6
Locomotor gait swing was evaluated in the catwalk test. […]

microglia = experiment: Microglia activation in striatum (perimeter of Iba1 stained cells); assay type: in vivo, rat; details: 6-OHDA rats treated with golexanolone; 5 weeks after surgery; mean±SEM; untreated 6-OHDA 217±8, shams 254±1
Excerpt: as §1, §2, §3, §4
In this Parkinson's Disease test model, microglia activation was analyzed by measuring the perimeter of individual Iba1 stained cells with IpWin2 software at 5 weeks after surgery.

[8] = tested on: tyrosine hydroxylase (TH); experiment: Tyrosine hydroxylase content in striatum, immunohistochemistry; assay type: in vivo, rat; details: 6-OHDA rats treated with golexanolone; 5 weeks after surgery; mean±SEM; untreated 6-OHDA rats 36±4%
Excerpt: as §1, §2, §3
(§7) Rats positive in the apomorphine-induced rotation test (20 animals) were included in the study, together with 20 sham-operated controls. Golexanolone treatment (50 mg/kg, daily, intragastric) and vehicle treatment as negative controls started 4 weeks after surgery. […]
Tyroxine hydroxylase (TH) was analysed according to Heo et al (Curr Biol. 2020 Jan. 20; 30(2): pp. 276-291). […]

6-OHDA rat model [9] = experiment: Sucrose preference test (anhedonia, depression); assay type: in vivo; details: 6-OHDA rats; 50 mg/kg daily intragastric; 7 weeks after surgery, 3 weeks of treatment
Excerpt: as §1, §2, §3, §7

SMILES: C#C[C@]1(O)CC[C@@]2(C)C(CC[C@@H]3[C@@H]2CC[C@]2(C)/C(=N/O)CC[C@@H]32)C1 (stereo partly drawn) [golexanolone, 3α-ethynyl-3β-hydroxyandrostan-17-one oxime]
- All AIMs (axial, limb, orolingual and locomotive) during three hours [1]: less AIMs
- Astrocyte activation: total GFAP stained area in the injured striatum (astrocytes): 92±4 % of shams
- Errors crossing the horizontal ladder (failures to set a foot on the ladder stairs) (6-OHDA rat model [2]): made less errors
- Anxiety (time in the central zone of open arena) (6-OHDA rat model [3]): improves anxiety
- Object location memory (discrimination ratio) (6-OHDA rat model [4]): improves object location memory
- Initial dual stance in the CatWalk test (6-OHDA rat model [5]): improves initial dual stance
- Level of α-synuclein in the injured striatum (α-synuclein): 99±9 % of shams
- Fatigue (time in the treadmill, time in shock) (6-OHDA rat model [6]): improved fatigue
- Locomotor gait swing in the CatWalk test (6-OHDA rat model [7]): improved swing
- Microglia activation: perimeter of individual Iba1 stained cells in the injured striatum (microglia): 250±8 μm
- TH staining in the striatum [8]: 62±11 % of shams
- Depression (anhedonia, sucrose preference) (6-OHDA rat model [9]): improves depression
